Measured values from US6083922A (priority 1997, dated 2000).
In brackets after ≈: the same amount, converted by molar mass. Several values for one entry are separate records, joined by “and”; a condition that tells them apart may be missing. Equal values may be shown once. Read-outs that look alike come from different tables or passages of the source.

Legend:
[1] = system: M. tuberculosis H37Rv(lux); test: Killing curve assay; type: cell-based, Mycobacterium tuberculosis
[2] = Ultrasonic nebulizer delivery of tobramycin, effect of saline dilution (Example 2); settings: for aerosolized output of tobramycin, MEAN: UltraAire, 60 mg/mL, 5 mL, 10 minutes
Procedure: This example describes testing performed to determine the effect of normal and quarter strength diluted saline on the aerosolization of tobramycin and on the amount of drug delivered over a ten-minute period.
To test output from a hand-held portable ultrasonic nebulizer, an UltraAirs by Omron was used. This ultrasonic nebulizer has a reusable medication cup that is placed over the ultrasonic crystal. […] After 10 minutes nebulization run, the cups were reweighed. The aerosolized output of tobramycin was determined from the difference between weight before and after the nebulization. Each solute was tested 14 times.

[3] = system: Drug-Sensitive Strains of M. tuberculosis; test: microbe, parasite or virus in culture; type: cell-based; settings: Mycobacterium tuberculosis
[4] = Randomized cross-over study of nebulizers, peak sputum tobramycin
From the text: A randomized, cross-over study compared the ability of several nebulizers to deliver tobramycin by measuring peak sputum tobramycin concentrations in samples collected ten minutes after completion of the aerosol dose.

[5] = FEV1 change following aerosol administration (Example 5); type: in vivo, human; settings: individual subjects, 300 mg, 30 min from completion
M. tuberculosis = test: Minimal inhibitory / bactericidal concentration of tobramycin, general statements; set-up: species or system Mycobacterium tuberculosis
[6] = Serum tobramycin concentrations following aerosol administration (Example 5); type: in vivo, human; settings: for Serum Tobramycin: individual subjects
Procedure: (§1) The doses were separated by at least 2 days and not more than 5 days. Peak serum and sputum concentrations were assessed and results are seen in Tables 10 and 11.

P. aeruginosa = settings: aerosolized 600 mg tid, cited from earlier work
[7] = Comparative characteristics of nebulizers delivering tobramycin
From the text: Both ultrasonic and jet nebulizers were studied.
An in vitro comparative study evaluated a variety of commercially available jet nebulizers, including among others, the Acorn II® by Marquest, T-Updraft® by Hudson, Sidestream® by Medicaid, and Pari LC® by Pari. The PulmoAide® compressor was chosen because of its reliability and widespread use.

[8] = cited from earlier work
[9] = type: physicochemical
clinical = type: in vivo, human; settings: for Sputum Tobramycin Concentrations: individual subjects, 300 mg in 5 mL 1/4 NS
Procedure: as §1

For `NNC(=O)c1ccncc1` [isoniazid], which “persistence of bactericidal activity” value ([1]; FIG. 4) is on record?
The value was “only temporary”.

What about the “day growth of the bacteria resumed” value ([1]; isoniazid 0.06 μg/mL) of the same compound?
The value was 4 days.

And the “day of initial sharp killing” value ([1]; isoniazid 0.06 μg/mL)?
Its value is 4 days.

And the “day growth of the bacteria resumed” value ([1]; isoniazid 0.25 μg/mL)?
Its value is 7 days.

And the “day of initial sharp killing” value ([1]; isoniazid 0.25 μg/mL)?
The value was 1 days.

What does the source list for `NC[C@H]1O[C@H](O[C@H]2[C@H](O)[C@@H](O[C@H]3O[C@H](CO)[C@@H](O)[C@H](N)[C@H]3O)[C@H](N)C[C@@H]2N)[C@H](N)C[C@@H]1O` [tobramycin]?
amount of tobramycin delivered ([2]; 1/4 diluted saline versus full strength nondiluted saline): Higher amount of tobramycin was delivered; aerosolized output of tobramycin, MEAN ([2]; diluted 0.22% NS): 4.071; aerosolized output of tobramycin, MEAN ([2]; nondiluted 0.9% NS): 3.636; MIC ([3]; H37RV, read-out: Tobramycin MIC, strain H37RV): 4 µg/mL (≈ 8.56 µM); MIC ([3]; all tested drug sensitive strains, read-out: minimal inhibitory concentration): 4 to 8 µg/mL (≈ 8.56 to 17.1 µM); MIC ([3]; read-out: Tobramycin MIC, strain TN675): 4 µg/mL (≈ 8.56 µM); MIC ([3]; read-out: Tobramycin MIC, strain TN994): 4 µg/mL (≈ 8.56 µM); MIC ([3]; read-out: Tobramycin MIC, strain TN1008): 4 µg/mL (≈ 8.56 µM); MIC ([3]; read-out: Tobramycin MIC, strain TN1039): 4 µg/mL (≈ 8.56 µM); MIC ([3]; read-out: Tobramycin MIC, strain TN2351): 8 µg/mL (≈ 17.1 µM); MIC ([3]; read-out: Tobramycin MIC, strain TN2524): 4 µg/mL (≈ 8.56 µM); MIC ([3]; read-out: Tobramycin MIC, strain TN3183): 4 µg/mL (≈ 8.56 µM); MIC ([3]; read-out: Tobramycin MIC, strain TN3979): 4 µg/mL (≈ 8.56 µM); MIC ([3]; read-out: Tobramycin MIC, strain TN4259): 4 µg/mL (≈ 8.56 µM); time to complete nebulization of all 5 mL ([4]; Pari LC, 60 mg/mL in 1/4 NS): about ten; mass median aerodynamic diameter ([4]; Pari LC, 60 mg/mL in 5 mL 1/4 NS): about 3.3 μm; Cmax at 10 min ([4]; human, in vivo, inhaled or intranasal, 300 mg): ~679000 ng/g; ± % change FEV1 ([5]; Pari LC): -1.2% and 1.2% and -0.6% and -2% and -5%; ± % change FEV1 ([5]; Sidestream): -2.2% and 0.0% and -7.6% and -1%; MBC (M. tuberculosis; Mycobacterium tuberculosis, in the lungs and sputum, read-out: concentration found to be bactericidal): ≥ 8 µg/mL; MIC (M. tuberculosis; Mycobacterium tuberculosis, read-out: lowest systemic minimal inhibitory concentration): ~8 µg/mL (≈ 17.1 µM); MIC (M. tuberculosis; Mycobacterium tuberculosis, systemic administration, read-out: minimal inhibitory concentration which would need to be present in the systemic circulation): 800 to 1000 µg/mL (≈ 1710 to 2140 µM); sputum concentrations providing bactericidal activity, in multiples of MIC (M. tuberculosis; toward M. tuberculosis): 10-100 times MIC; safety of the dosage ([6]; 300 mg aerosol, because of serum concentrations): extremely safe; serum concentrations ([6]; 300 mg in 5 mL of 60 mg/mL in 1/4 NS): < 1600 ng/mL; Serum Tobramycin ([6]; Pari LC, 300 mg in 5 mL 1/4 NS, 1 hour from completion, 60 min): 0.2 µg/mL and 0.5 µg/mL and 0.6 µg/mL and 0.8 µg/mL; Serum Tobramycin ([6]; Pari LC, 300 mg in 5 mL 1/4 NS, 2 hours from completion, 120 min): 0.3 µg/mL and 0.4 µg/mL and 0.5 µg/mL and 0.7 µg/mL; Serum Tobramycin ([6]; Pari LC, 300 mg, baseline): not detected; Serum Tobramycin ([6]; Sidestream, 300 mg in 5 mL 1/4 NS, 1 hour from completion, 60 min): 0.3 µg/mL and 0.2 µg/mL and 0.9 µg/mL and 1.2 µg/mL and 1.6 µg/mL; Serum Tobramycin ([6]; Sidestream, 300 mg in 5 mL 1/4 NS, 2 hours from completion, 120 min): 0.2 µg/mL and 0.8 µg/mL and 1.0 µg/mL; Serum Tobramycin ([6]; Sidestream, 300 mg, baseline): not detected; spirometry (P. aeruginosa; 71 CF patients): improved spirometry; sputum density of P. aeruginosa (P. aeruginosa; 71 CF patients): significant reduction in sputum density of P. aeruginosa; safety and efficacy in CF patients (P. aeruginosa): both safe and efficacious; MMAD ([7]; DeVilbiss 99, 20 mg/mL in 1/2 NS): 4-5 microns; Time to Nebulize ([7]; DeVilbiss 99, 20 mg/mL in 1/2 NS, 30 mL): 10 to 12 min; Drug Dose/mL ([7]; DeVilbiss 99, 20 mg/mL in 1/2 NS, total dose 600 mg): 33 ± 1.8 mg; tobramycin delivered ([7]; DeVilbiss 99, 600 mg): 33 mg/mL; particle size ([7]; Pari LC): 4.5 μ; particle sizes ([7]; Pari LC Plus): 3.3 μ; MMAD ([7]; Pari LC, 60 mg/mL in 1/4 NS): 4-5 microns; Time to Nebulize ([7]; Pari LC, 60 mg/mL in 1/4 NS, 5 mL): 10 min; Drug Dose/mL ([7]; Pari LC, 60 mg/mL in 1/4 NS, total dose 300 mg): 29 ± 5 mg; particle size output ([7]; Sidestream): 2.2 μ; MMAD ([7]; Sidestream, 60 mg/mL in 1/4 NS): ~ 2.2 microns; Time to Nebulize ([7]; Sidestream, 60 mg/mL in 1/4 NS, 5 mL, time to sputtering of jet): ~ 13 minutes; Drug Dose/mL ([7]; Sidestream, 60 mg/mL in 1/4 NS, total dose 300 mg): 30 ± 1.8 mg; tobramycin delivered to the airways ([7]; all three nebulizers): about 30 mg/mL; maximum safe concentration in the serum [8]: 8 to 10 µg/mL; recommended peak therapeutic serum concentrations [8]: 8 to 10 µg/mL; color of the solution ([9]; 60 mg/mL, 40° C., pH 7.0, after 35 days): yellowing of the solution; degradation of tobramycin ([9]; pH greater than 7.0): degradation of tobramycin occurs; time for which growth is prevented ([1]; 4 μg/mL): about eight; day at which growth is seen to be inhibited ([1]; 8 μg/mL): 7 days; day at which 2-log reduction is reached ([1]; 16 μg/mL): four; bactericidal activity compared to growth control ([1]; 1-2 μg/mL): bactericidal activity decreasing the count of M. tuberculosis; reduction of M. tuberculosis counts in vitro ([1]; 8 and 16 μg/mL): more than 2 log; activity against M. tuberculosis H37Rv in vitro ([1]; FIG. 4): potent activity; persistence of bactericidal activity ([1]; FIG. 4): continuous decrease and inhibition of M. tuberculosis growth; count of Mycobacterium tuberculosis after treatment ([1]; tobramycin 8 and 16 μg/mL, decreased from 10^6): about 10^2 CFU; concentration at 10 min (clinical; human, sputum, inhaled or intranasal, mean, Pari LC, 300 mg, 10 min): 396000 ± 677000 ng/g; Sputum Tobramycin Concentrations (clinical; Pari LC, 10 min from completion, 10 min): 1595.9 μg/gm and 764.2 μg/gm and 133.7 μg/gm and 166.5 μg/gm and 1395.6 μg/gm; Sputum Tobramycin Concentrations (clinical; Pari LC, 1 hour, 60 min): 481.8 μg/gm and 231.8 μg/gm and 110.7 μg/gm and 32.4 μg/gm and 186.8 μg/gm; Sputum Tobramycin Concentrations (clinical; Pari LC, 2 hours, 120 min): 416.8 μg/gm and 52.8 μg/gm and 92.5 μg/gm and 60.5 μg/gm and 131.8 μg/gm; Sputum Tobramycin Concentrations (clinical; Pari LC, baseline): bql (<20 μg/gm); Sputum Tobramycin Concentrations (clinical; Sidestream, 10 min from completion, 10 min): 792.8 μg/gm and 460.6 μg/gm and 162.5 μg/gm and 84.2 μg/gm and 1135.9 μg/gm; Sputum Tobramycin Concentrations (clinical; Sidestream, 1 hour, 60 min): 1026.7 μg/gm and 23.1 μg/gm and 180.5 μg/gm and 36.6 μg/gm and 488.2 μg/gm; Sputum Tobramycin Concentrations (clinical; Sidestream, 2 hours, 120 min): 163 μg/gm and 49.1 μg/gm and 58.1 μg/gm and 57.5 μg/gm and 331.5 μg/gm; Sputum Tobramycin Concentrations (clinical; Sidestream, baseline): bql (<20 μg/gm) and bqi; Sputum Tobramycin Concentrations, Mean/Std Dev (clinical; mean, Pari LC, 300 mg, 1 hour): 186.8 μg/gm; Sputum Tobramycin Concentrations, Mean/Std Dev (clinical; mean, Pari LC, 300 mg, 2 hours): 131.8 μg/gm; Sputum Tobramycin Concentrations, Mean/Std Dev (clinical; mean, Pari LC, baseline): bql (<20 μg/gm); Sputum Tobramycin Concentrations, Mean/Std Dev (clinical; mean, Sidestream, 300 mg, 10 min): 527.21 ± 585.9 μg/gm; Sputum Tobramycin Concentrations, Mean/Std Dev (clinical; mean, Sidestream, 300 mg, 1 hour): 488.2 μg/gm; Sputum Tobramycin Concentrations, Mean/Std Dev (clinical; mean, Sidestream, 300 mg, 2 hours): 331.5 μg/gm; Sputum Tobramycin Concentrations, Mean/Std Dev (clinical; mean, Sidestream, baseline): bql (<20 μg/gm)
